Experimental data taken from patent publication US4191780A, “Bromhexine derivatives and process for making same” (priority 1978, dated 1980).

Assays:
[1] = Eight-day toxicity studies in mice, lethality (i.p.); assay type: in vivo; details: for Total number of deaths: 8 days
Source text: Eight-day toxicity studies of IFT 1026 and Bromhexine in mice.

[2] = Long-term toxicity in rats (16 weeks): mean body weight; assay type: in vivo
Source text: Effect of daily oral administration of various doses of
IFT 1026 and Bromhexine on mean body weight of rats.

[3] = Long-term toxicity in rats: hematological parameters; assay type: in vivo, rat; details: daily oral Bromhexine 250 mg/kg, IFT 1026 350 mg/kg
Protocol: The hematological and biochemical values relating to the groups under treament with the above reported doses are shown in Tables Nos. 4 and 5. These values are virtually the same for both treated and control animals.
Effect of daily oral administration of Bromhexine 250 mg/kg
and IFT 1026 350 mg/kg on the hematological parameters in […]

[4] = Long-term toxicity in rats: biochemical parameters; assay type: in vivo, rat; details: daily oral 250 mg/kg Bromhexine, 350 mg/kg IFT 1026
[5] = Bromsulphtalein (BSP) clearance in rats treated with the lower dose; assay type: in vivo; details: 30 min after 50 mg/kg BSP i.v., lower dose of drug
Protocol: The possibility to use BSP for the diagnosis of lesions in liver parenchyma is well known. Bromsulphtalein (BSP) clearance was made according to Carpi and Parenti (Carpi, C. and M. A. Parenti, Il Farmaco, Ed. Pr. vol. 17, page 45, 1962). Thirty minutes after the i.v. administration of 50 mg/kg BSP to control rats, the mean plasma level of the dyestuff is 80±12 mcg/ml.
% of rate showing BSP plasma levels greater than 80 mcg/ml
(control values) and 160 mcg/ml (two-fold control values)

[6] = Long-term toxicity in rats: organ weights at necropsy; assay type: in vivo; details: fresh weight, daily oral 250 mg/kg Bromhexine, 350 mg/kg IFT 1026
Protocol: Effect of daily oral administration of 250 mg/kg Bromhexine and 350 mg/kg
organ weights of rats, expressed as grams of fresh weight.

[7] = Long-term toxicity in rats: mortality, pathology and general state; details: rat, in vivo
Protocol: Long-term toxicity (16 weeks) of IFT 1026 is tested in comparison to the parent compound (Bromhexine).

[8] = system: Pain induced by a chemical stimulus; assay: Siegmund Test: pain induced by a chemical stimulus (acetic acid writhing); assay type: in vivo, mice; details: mouse, 300 mg/kg oral
Protocol: (§1) Two test methods are used for establishing the action of Bromhexine and IFT 1026 on noci-ceptive stimuli in mice.
(§2) (a) Pain induced by a chemical stimulus according to the method of Siegmund (Siegmund E., Cadmier, R., and Lu, G. Proc. Soc. exp. Biol. N.Y. 95, 729--1957). The mice distributed at random into groups of 10 animals, are deprived of solid food for the 18-hour period prior to the test. […] Thirty minutes after treatment the mice are injected i.p. with 0.1 ml/10 g of a 1.5% acetic acid solution. The writhing is recorded for a 20 min. period following this i.p. injection.

[9] = system: Pain induced by a physical stimulation; assay: Hot-plate Test (Eddy and Leimbach): pain induced by a physical stimulation; assay type: in vivo, mice; details: mouse, 300 mg/kg oral, plate at 57° C.
Protocol: as §1
(§3) (b) Pain induced by a physical stimulation according to the hot-plate test technique by Eddy and Leimbach (Eddy, N. B. and Leimbach, O., J. Pharmacol. exp.Ther. 107, 383--1953). The temperature of the plate was kept at 57° C. Groups of 12 mice are treated as described under (a) above. The reaction times are measured 15 min. before treatment (Ro) and 4 times after the administration (every 15 min). Only the maximal response is taken into account (Rmax).

[10] = system: Cough elicited by 15% citric acid spray; assay: Antitussive activity in mice, citric acid spray cough; assay type: in vivo; details: Mus musculus, oral, 1 hour after administration, confidence limits P = 0.05
Protocol: (§4) (6) Antitussive effect in Guinea-pigs and mice
(§5) Cough is elicited by 15% citric acid spray in both species, according to the method by Harsany et al. (Boll. Chim. Farm. 112, 691, 1973). The effect was tested 1 hour after oral administration and 30 min. after intraperitoneal application of the antitussive agents on mice and Guinea-pigs respectively.
(§6) ED50 values of the drugs are computed by the method of Litchfield and Wilcoxon (Litchfield, J. T. Jr., and Wilcoxon F., J. Pharmacol. exp. Ther. 96,99--1949).

[11] = system: Cough elicited by 15% citric acid spray; assay: Antitussive activity in Guinea-pigs, citric acid spray cough; assay type: in vivo; details: Cavia porcellus, ip, 0.5 h, intraperitoneal, 30 min. after application, confidence limits P = 0.05
Protocol: as §4, §5, §6

noci-ceptive stimuli = assay: Study of analgesic action on mice (both tests); assay type: in vivo; details: 300 mg/kg oral
Protocol: as §1, §2, §3

## CN(Cc1cc(Br)cc(Br)c1N)C1CCCCC1 [Bromhexine, N-cyclohexyl-N-methyl-2-(2-amino-3,5-dibromo)benzylammonium chloride]
[1]; daily dose 300 mg/k
  Number of deaths at day 3: 1
  Number of deaths at day 6: 1
  Total number of deaths: 2/10
[1]; daily dose 600 mg/k
  Number of deaths at day 3: 1
  Number of deaths at day 5: 1
  Number of deaths at day 6: 1
  Number of deaths at day 7: 1
  Number of deaths at day 8: 1
  Total number of deaths: 5/10
[2]; females, 50 mg/kg daily oral, 0 days
  body weight, mean ± SE: 110 ± 5 g
[2]; females, 50 mg/kg daily oral, 21 days
  body weight, mean ± SE: 174 ± 2 g
[2]; females, 50 mg/kg daily oral, 45 days
  body weight, mean ± SE: 217 ± 4 g
[2]; females, 50 mg/kg daily oral, 60 days
  body weight, mean ± SE: 229 ± 4 g
[2]; females, 250 mg/kg daily oral, 0 days
  body weight, mean ± SE: 109 ± 6 g
[2]; females, 250 mg/kg daily oral, 21 days
  body weight, mean ± SE: 158 ± 5 g
[2]; females, 250 mg/kg daily oral, 45 days
  body weight, mean ± SE: 206 ± 4 g
[2]; females, 250 mg/kg daily oral, 60 days
  body weight, mean ± SE: 230 ± 3 g
[2]; females, 1000 mg/kg daily oral, 0 days
  body weight, mean ± SE: 117 ± 6 g
[2]; females, 1000 mg/kg daily oral, 21 days
  body weight, mean ± SE: 147 ± 13 g
[2]; females, 1000 mg/kg daily oral, 45 days
  body weight, mean ± SE: 157 ± 7 g
[2]; females, 1000 mg/kg daily oral, 60 days
  body weight, mean ± SE: 188 ± 12 g
[2]; males, 50 mg/kg daily oral, 0 days
  body weight, mean ± SE: 115 ± 9 g
[2]; males, 50 mg/kg daily oral, 21 days
  body weight, mean ± SE: 225 ± 6 g
[2]; males, 50 mg/kg daily oral, 45 days
  body weight, mean ± SE: 295 ± 7 g
[2]; males, 50 mg/kg daily oral, 60 days
  body weight, mean ± SE: 365 ± 7 g
[2]; males, 250 mg/kg daily oral, 0 days
  body weight, mean ± SE: 118 ± 12 g
[2]; males, 250 mg/kg daily oral, 21 days
  body weight, mean ± SE: 218 ± 7 g
[2]; males, 250 mg/kg daily oral, 45 days
  body weight, mean ± SE: 285 ± 8 g
[2]; males, 250 mg/kg daily oral, 60 days
  body weight, mean ± SE: 355 ± 9 g
[2]; males, 1000 mg/kg daily oral, 0 days
  body weight, mean ± SE: 110 ± 7 g
[2]; males, 1000 mg/kg daily oral, 21 days
  body weight, mean ± SE: 180 ± 9 g
[2]; males, 1000 mg/kg daily oral, 45 days
  body weight, mean ± SE: 250 ± 8 g
[2]; males, 1000 mg/kg daily oral, 60 days
  body weight, mean ± SE: 290 ± 12 g
[2]; rats, exception: Bromhexine 1000 mg/kg/day
  variations in the body weights versus control group: lower values than their control group
[3]; females
  RBC, mean ± SE: 752 ± 37 10^6 /ml
  WBC, mean ± SE: 132 ± 5 10^2 /ml
[3]; males
  RBC, mean ± SE: 774 ± 63 10^6 /ml
  WBC, mean ± SE: 168 ± 20 10^2 /ml
[4]; females
  A/G ratio (Albumin/Globulin), mean ± SE: 2.6 ± 0.1
  BUN, mean ± SE: 44.9 ± 4 mg %
  GLUCOSE, mean ± SE: 77.1 ± 9 mg %
  SGOT, mean ± SE: 24.1 ± 0.5 Units/ml
  SGPT, mean ± SE: 12.6 ± 0.3 Units/ml
  TOTAL PROTEIN, mean ± SE: 25.8 ± 1.1 mg/mL
[4]; males
  A/G ratio (Albumin/Globulin), mean ± SE: 2.4 ± 0.2
  BUN, mean ± SE: 34.5 ± 3 mg %
  GLUCOSE, mean ± SE: 88.5 ± 6 mg %
  SGOT, mean ± SE: 24.8 ± 0.5 Units/ml
  SGPT, mean ± SE: 12.7 ± 0.15 Units/ml
  TOTAL PROTEIN, mean ± SE: 27.1 ± 2.5 mg/mL
[5]; X^2 = 0.43, N.S.
  % showing BSP plasma levels >160 mcg/ml: 12%
  rats showing BSP plasma levels >160 mcg/ml, number/tested: 2/17
[5]; X^2 = 0.7, N.S.
  % showing BSP plasma levels >80 mcg/ml: 41%
  rats showing BSP plasma levels >80 mcg/ml, number/tested: 7/17
[6]; females
  organ weight, Adrenal glands: 4.7 ± 0.1 10^-2 grams
  organ weight, Brain: 19.7 ± 0.5 10^-1 grams
  organ weight, Heart: 8.3 ± 0.2 10^-1 grams
  organ weight, Kidneys: 18.8 ± 0.9 10^-1 grams
  organ weight, Liver: 10.5 ± 0.2 grams
  organ weight, Lungs: 14.4 ± 0.9 10^-1 grams
  organ weight, Spleen: 7.9 ± 0.2 10^-1 grams
[6]; males
  organ weight, Adrenal glands: 3.8 ± 0.2 10^-2 grams
  organ weight, Brain: 14 ± 1 10^-1 grams
  organ weight, Heart: 8.8 ± 1.4 10^-1 grams
  organ weight, Kidneys: 18.4 ± 0.5 10^-1 grams
  organ weight, Liver: 10.6 ± 0.2 grams
  organ weight, Lungs: 11.6 ± 1.7 10^-1 grams
  organ weight, Spleen: 6 ± 0.6 10^-1 grams
[7]
  animals that died during the study: Five
  rats displaying liver steatosis: Four
[8]
  Siegmund Test, number of writhings for a 20 min. period, mean ± SE: 32 ± 3
[9]
  Hot-plate Test (R max/Ro), mean ± SE: 1.5 ± 0.18
[10]
  ED50: 194 mg/kg
[11]
  ED50: 143 mg/kg
noci-ceptive stimuli
  Responses to algogenic stimuli: not suppressed
